This is an account of results in patent US20120178672A1, “Compositions and Methods for Sparing Muscle in Renal Insufficiency and During Hemodialysis” (priority 2009, published 2012).

The assay has as its system subjects. Briefly: Rate of urea production by tracer technique after ingestion of EAAs following resistance exercise. In kind it is in vivo. To be noted: infusion, same tracer methodology, same time interval. Here is the method:
Acute changes in the rate of urea production were measured using a tracer technique known to those of skill in the art. […] The reason for the lack of an increase in urea production is believed to be the reutilization of non-essential amino acids for muscle protein synthesis rather than transport to the liver for degradation and incorporation of the nitrogen into urea. This is reflected by the steady drop in the concentration of alanine in the blood, as depicted in the chart of FIG. 2B. Thus, the EAA blend greatly stimulates net muscle protein synthesis without increasing blood urea concentration. This aspect of the disclosed composition is of potentially great advantage to CKD patients, as the provision of intact protein alone increases blood urea while having minimal effect on muscle protein net balance.

Consider `C[C@H](N)C(=O)O` [alanine], for which the Urea production entry is reported as “stimulated urea significantly”.
Consider `NC(=O)CC[C@H](N)C(=O)O` [glutamine], for which the Urea production result is “stimulated urea significantly”.
